Test results: patent publication US20030187240A1, “2' -modified oligonucleotides” (ISIS Pharmaceuticals, Inc., priority 1990, published 2003)
Strand notation (5' to 3'): a small letter for the sugar, then the base; units joined by * are phosphorothioate-linked, units joined directly phosphodiester-linked; [ ] holds rarer units or linkages, { } end groups; capitals alone tell only the bases. [OPr] = 2'-O-propyl nucleotide; [OPent] = 2'-O-pentyl nucleotide; d = 2'-deoxy (DNA); m = 2'-O-methyl; f = 2'-fluoro

What was measured:
[1] = test system: crude HeLa cellular extracts
c-raf mRNA = test: Northern blot analysis of inhibition of c-raf mRNA expression in T24 cells; assay type: cell-based, human
Source text: Chimeric oligonucleotides having SEQ ID NO: 7 were designed using the Genbank c-raf sequence HUMRAFR (Genbank listing x03484), synthesized and tested for inhibition of c-raf mRNA expression in T24 bladder carcinoma cells using a Northern blot assay. These chimeric oligonucleotides have central “gap” regions of 6, 8 or 10 deoxynucleotides flanked by two regions of 2′-O-methyl modified nucleotides, and are shown in Table 10. Backbones were uniformly phosphorothioate. […] These oligonucleotides are preferred.
The human urinary bladder cancer cell line T24 was obtained from the American Type Culture Collection (Rockville, Md.). Cells were grown in McCoy's 5A medium with L-glutamine (GIBCO-BRL, Gaithersburg, Md.), supplemented with 10% heat-inactivated fetal calf serum and 50 U/ml each of penicillin and streptomycin. Cells were seeded on 100 mm plates. When they reached 70% confluency, they were treated with oligonucleotide. Plates were washed with 10 ml prewarmed PBS and 5 ml of OptiMEM reduced-serum medium containing 2.5 μl DOTMA. Oligonucleotide with lipofectin was then added to the desired concentration. After 4 hours of treatment, the medium was replaced with McCoy's medium. Cells were harvested 24 to 72 hours after oligonucleotide treatment and RNA was isolated using a standard CsCl purification method. [Kingston in Current Protocols in Molecular Biology, F. M. Ausubel, R. Brent, R. E. Kingston, D. D. Moore, J. A. Smith, J. G. Seidman and K. Strahl, Eds., John Wiley and Sons, New York.] Total RNA was isolated by centrifugation of cell lysates over a CsCl cushion. RNA samples were electrophoresed through 1.2% agarose-formaldehyde gels and transferred to hybridization membranes by capillary diffusion over a 12-14 hour period. The RNA was cross-linked to the membrane by exposure to UV light in a Stratalinker (Stratagene, La Jolla, Calif.) and hybridized to random-primed ^32P-labeled c-raf cDNA probe (obtained from ATCC) or G3PDH probe as a control. RNA was quantitated using a Phosphorimager (Molecular Dynamics, Sunnyvale, Calif.).

PKC-α mRNA = PKC-α mRNA levels by Northern blot analysis; assay type: cell-based, human; settings: FIGS. 3, 4 and 5; result in words
Method: Oligonucleotides having SEQ ID NO: 4 were synthesized as uniformly phosphorothioate chimeric oligonucleotides having a centered deoxy gap of varying lengths flanked by 2′-O-methylated regions. These oligonucleotides (500 nM concentration) were tested for effects on PKC-α mRNA levels by Northern blot analysis.

[2] = test system: 25 mer oligoribonucleotide complement; test: Melting curves of 2′-modified 17-mers with 7-deoxy gap; assay type: binding; settings: 17-mer with 7-deoxy gap hybridized with 25 mer oligoribonucleotide complement
Source text: This is attributed to these phosphodiester compounds being substrates for nucleases that degrade such phosphodiester compounds thus preventing them potentially activating RNase H. Other sugar modifications: The effects of other 2′ sugar modifications besides 2′-O-methyl on antisense activity in chimeric oligonucleotides have been examined. These modifications are listed in Table 4, along with the Tm values obtained when 17 mer oligonucleotides having 2′-modified nucleotides flanking a 7-base deoxy gap were hybridized with a 25 mer oligoribonucleotide complement as described in Example 25. […] As alkyl length increased, Tm decreased.
Absorbance vs. temperature curves were measured at 260 nm using a Gilford 260 spectrophotometer interfaced to an IBM PC computer and a Gilford Response II spectrophotometer. The buffer contained 100 mM Na^+, 10 mM phosphate and 0.1 mM EDTA, pH 7. Oligonucleotide concentration was 4 μM each strand determined from the absorbance at 85° C. and extinction coefficients calculated according to Puglisi and Tinoco [Methods in Enzymol., 180, 304 (1989). Tm values, free energies of duplex formation and association constants were obtained from fits of data to a two state model with linear sloping baselines. [Petersheim and Turner, Biochemistry, 22, 256 (1983). Reported parameters are averages of at least three experiments. For some oligonucleotides, free energies of duplex formation were also obtained from plots of Tm^−1 vs log10 (concentration). Borer et al., J. Mol. Biol., 86, 843 (1974).

H-ras = test: ras transactivation reporter gene assay; assay type: cell-based; settings: for IC50: antisense activity against H-ras, 17-mer with 7-deoxy gap
Source text: The expression plasmid pSV2-oli, containing an activated (codon 12, GGC→GTC) H-ras cDNA insert under control of the constitutive SV40 promoter, was a gift from Dr. Bruno Tocque (Rhone-Poulenc Sante, Vitry, France). This plasmid was used as a template to construct, by PCR, a H-ras expression plasmid under regulation of the steroid-inducible mouse mammary tumor virus (MMTV) promoter. To obtain H-ras coding sequences, the 570 bp coding region of the H-ras gene was amplified by PCR. The PCR primers were designed with unique restriction endonuclease sites in their 5′-regions to facilitate cloning. The PCR product containing the coding region of the H-ras codon 12 mutant oncogene was gel purified, digested, and gel purified once again prior to cloning. This construction was completed by cloning the insert into the expression plasmid pMAMneo (Clontech Laboratories, Calif.).
The ras-responsive reporter gene pRD053 was used to detect ras expression. [Owen et al., Proc. Natl. Acad. Sci. U.S.A., 87, 3866 (1990).

ras mRNA = test: Northern blot analysis of ras expression in T24 cells; assay type: cell-based, human; settings: result in words
Method: The human urinary bladder cancer cell line T24 was obtained from the American Type Culture Collection (Rockville Md.). Cells were grown in McCoy's 5A medium with L-glutamine (GIBCO-BRL, Gaithersburg, Md.), supplemented with 10% heat-inactivated fetal calf serum and 50 U/ml each of penicillin and streptomycin. Cells were seeded on 100 mm plates. When they reached 70% confluency, they were treated with oligonucleotide. Plates were washed with 10 ml prewarmed PBS and 5 ml of OptiMEM (GIBCO) reduced-serum medium containing 2.5 μl DOTMA. Oligonucleotide was then added to the desired concentration. After 4 hours of treatment, the medium was replaced with McCoy's medium. Cells were harvested 48 hours after oligonucleotide treatment and RNA was isolated using a standard CsCl purification method. [Kingston in Current Protocols in Molecular Biology, F. M. Ausubel, R. Brent, R. E. Kingston, D. D. Moore, J. A. Smith, J. G. Seidman and K. Strahl, Eds., John Wiley and Sons, New York.] The human epithelioid carcinoma cell line HeLa 229 was obtained from the American Type Culture Collection (Bethesda, Md.). HeLa cells were maintained as monolayers on 6-well plates in Dulbecco's Modified Eagle's medium (DMEM) supplemented with 10 fetal bovine serum and 100 U/ml penicillin. Treatment with oligonucleotide and isolation of RNA were essentially as described above for T24 cells.
Northern hybridization: 10 μg of each RNA was electrophoresed on a 1.2% agarose/formaldehyde gel and transferred overnight to GeneBind 45 nylon membrane (Pharmacia LKB, Piscataway, N.J.) using standard methods. [Kingston in Current Protocols in Molecular Biology, F. M. Ausubel, R. Brent, R. E. Kingston, D. D. Moore, J. A. Smith, J. G. Seidman and K. Strahl, Eds., John Wiley and Sons, New York.] RNA was UV-crosslinked to the membrane. Double-stranded ^32P-labeled probes were synthesized using the Prime a Gene labeling kit (Promega, Madison Wis.). The ras probe was a SalI-NheI fragment of a cDNA clone of the activated (mutant) H-ras mRNA having a GGC-to-GTC mutation at codon-12. The control probe was G3PDH. Blots were prehybridized for 15 minutes at 68° C. with the QuickHyb hybridization solution (Stratagene, La Jolla, Calif.). The heat-denatured radioactive probe (2.5×10^6 counts/2 ml hybridization solution) mixed with 100 μl of 10 mg/ml salmon sperm DNA was added and the membrane was hybridized for 1 hour at 68° C. The blots were washed twice for 15 minutes at room temperature in 2×SSC/0.1% SDS and once for 30 minutes at 60° C. with 0.1×SSC/0.1%SDS. Blots were autoradiographed and the intensity of signal was quantitated using an ImageQuant PhosphorImager (Molecular Dynamics, Sunnyvale, Calif.). Northern blots were first hybridized with the ras probe, then stripped by boiling for 15 minutes in 0.1×SSC/0.1%SDS and rehybridized with the control G3PDH probe to check for correct sample loading.

[3] = test system: codon-12 point mutation of mutant (activated) H-ras RNA; assay type: cell-based, human

4233 (CCACACCGACGGCGCCC; 2'-O-methyl wings, mixed phosphorothioate/phosphodiester, pattern not given here) [Oligonucleotide 4233]
T½ [1]: 7 h

4248 (CCACACCGACGGCGCCC; 2'-O-methyl wings, mixed phosphorothioate/phosphodiester, pattern not given here) [Oligonucleotide 4248]
degradation in HeLa cell extract [1]: no degradation after 5 hours

6717 (TCCCGCCTGTGACATGCATT; sugars from the 5' end m6 d8 m6, all phosphorothioate, T or U not given here) [Oligonucleotide 6717]
inhibition of c-raf mRNA expression (c-raf mRNA): greater than 90%

7083 (TCTCGCTGGTGAGTTTC; antisense; sugars from the 5' end [OPr]3 d9 [OPr]5, all phosphorothioate, methylation of C not given here) [Oligonucleotide 7083]
effect on PKC-α mRNA levels (PKC-α mRNA): most active in reducing PKC-α mRNA levels

7273 (AAAACGTCAGCCATGGTCCC; 2'-O-propyl/deoxy, mixed P=S/P=O backbone, chemistry not fully specified) [Oligonucleotide 7273]
effect on PKC-α mRNA levels (PKC-α mRNA): more active than their 2′-O-methyl counterparts at lowering PKC-α mRNA levels

7294 (AAAACGTCAGCCATGGTCCC; sugars from the 5' end [OPr]6 d14, linkages s1 o4 s9 o4 s1 (s phosphorothioate, o phosphodiester), methylation of C not given here) [Oligonucleotide 7294]
effect on PKC-α mRNA levels (PKC-α mRNA): more active than their 2′-O-methyl counterparts at lowering PKC-α mRNA levels

7849 (dC*dT*dC*dG*dC*dC*dC*dG*dC*dT*dC*dC*dT*dC*dC*dT*dC*dC*dC*dC) [Oligonucleotide 7849]
inhibition of c-raf mRNA expression (c-raf mRNA): > 70%

7854 (TTCTCCTCCTCCCCTGGCAG; sugars from the 5' end m12 d8, all phosphorothioate, T or U not given here) [Oligonucleotide 7854]
inhibition of c-raf mRNA expression (c-raf mRNA): > 70%

7856 (dT*dT*dC*dT*dC*dG*dC*dC*dC*dG*dC*dT*dC*dC*dT*dC*dC*dT*dC*dC) [Oligonucleotide 7856]
inhibition of c-raf mRNA expression (c-raf mRNA): > 70%

C^FC^FA^F C^FA^FCd CdGdAd CdGdGd C^FG^FC^F C^FC^F [Oligonucleotide 4690]
Tm (° C.) ([2]; listed as 2′-fluoro chimeric oligonucleotide): highest Tm of the series | Tm (° C.) ([2]; listed as Fluoro): 7 °C | antisense activity against H-ras (inhibition of ras expression) (H-ras): most active | IC50 (H-ras): 10 nM

C^MC^MA^M C^MA^MCd CdGdAd CdGdGd C^MG^MC^M C^MC^M [Oligonucleotide 3985]
Tm (° C.) [2]: 7 °C | IC50 (H-ras): 20 nM | inhibition of ras expression in T24 cells (ras mRNA): inhibited

CsCsAsCoAoCoCoGoAoCoGoGoCoGsCsCsC [Oligonucleotide 4241]
effect on ras expression (ras-luciferase reporter system), chimeric backbone-modified oligonucleotides [3]: completely inactive | T½ [1]: 0.9 h

CsCsAsCsAsCsCoGoAoCoGoGsCsGsCsCsC [Oligonucleotide 4606]
T½ [1]: 1.75 h

CsCsAsCsAsCsCoGoAoCoGsGsCsGsCsCsC [Oligonucleotide 4593]
T½ [1]: ~3.2 h

CsCsAsCsAsCsCsGoAoCoGsGsCsGsCsCsC [Oligonucleotide 4551]
T½ [1]: ~3.75 h

CsCsAsCsAsCsCsGoAoCsGsGsCsGsCsCsC [Oligonucleotide 4546]
T½ [1]: approximately 5.5 hours

O-Pentyl: 17-mer CCACACCGACGGCGCCC with 2′-O-pentyl nucleotides flanking a 7-base deoxy gap (sugars from the 5' end [OPent]5 d7 [OPent]5, backbone and methylation of C not given here)
Tm (° C.) [2]: 6 °C | IC50 (H-ras): 150 nM

O-Propyl: 17-mer CCACACCGACGGCGCCC with 2′-O-propyl nucleotides flanking a 7-base deoxy gap (sugars from the 5' end [OPr]5 d7 [OPr]5, backbone and methylation of C not given here)
Tm (° C.) [2]: 7 °C | IC50 (H-ras): 70 nM | inhibition of ras expression in T24 cells (ras mRNA): inhibited

Oligonucleotide 4689: SEQ ID NO: 1, 2′-fluoro-modified nucleotides flanking a 5-deoxy gap (CCACACCGACGGCGCCC; sugars from the 5' end f6 d5 f6, backbone and methylation of C not given here)
antisense activity against H-ras (inhibition of ras expression) (H-ras): also active
